{"source": "paper PMC6136390", "about": "“Coptisine-induced inhibition of Helicobacter pylori: elucidation of specific mechanisms by probing urease active site and its maturation process” (Journal of Enzyme Inhibition and Medicinal Chemistry, 2018)", "system": "H. pylori strains", "assay": "Minimal bactericidal concentration assay (broth dilution)", "type": "cell-based, Helicobacter pylori", "from_the_text": "Fourteen H. pylori strains were used in this study. NCTC 11637 and NCTC 26695 strains were purchased from American Type Culture Collection. Sydney Strain-1 (SS1) was kindly provided by Prof. Richard Ferrero of Monash University, Australia. Clinical isolate ICDC 111001 was provided by Prof. Zhang Jian-zhong of the Chinese Center for Disease Control and Prevention, China. Ten clinical isolates (Hp1868, Hp1869, Hp1870, Hp1871, Hp1872, Hp1873, Hp1874, Hp1875, Hp1876, and Hp1877) were obtained from Renji Hospital, Shanghai Jiaotong University.\nAll strains were cultured in Columbia agar base containing 7% sheep blood at 37 °C in a micro-aerophilic environment (5% O2, 10% CO2, and 85% N2). After 3 days, H. pylori was scraped and suspended in phosphate buffered saline (PBS). Turbidimetry was employed to adjust the concentrations of different H. pylori strains (turbidity equivalent to 1.0 McFarland standard). Crude HPU was obtained according to the method described by Matsubara et al.[42]\nThe broth dilution method was used to determine the minimal bactericidal concentrations (MBCs) of coptisine (25, 37.5, 50, 62.5, 75, 100, and 125 μg/mL) against three H. pylori standard strains (SS1, NCTC 11637, and NCTC 26695) and eleven clinical isolates (ICDC 111001, HP 1868, HP 1869, HP 1870, HP 1871 and HP 1872, HP 1873, HP 1874, HP 1875, HP 1876, and HP 1877). In brief, H. pylori suspension (McFarland = 1.0) was exposed to DMSO (control) and coptisine at 2–4 times MIC in BHI with 10% FBS. After shaking at 120 rpm in the tri-gas incubator for 6 h, 100 μL samples were removed and cultured in Columbia blood agar base[43]. MBC was defined as a 99.9% decrease in viability compared with the control. The experiment was repeated twice.", "note": "Like-named read-outs stand apart in the source and are kept apart here."}
{"compound": "c1c2c(cc3c1OCO3)-c1cc3ccc4c(c3c[n+]1CC2)OCO4", "note": "[Coptisine]", "values": [{"measurement": "MBC", "setting": "Helicobacter pylori, NCTC11637, strain NCTC 11637, pH = 7.2, read-out: MBC", "value": 62.5, "unit": "µg/mL"}, {"measurement": "MBC", "setting": "Helicobacter pylori, NCTC26695, strain NCTC 26695, pH = 7.2, read-out: MBC", "value": 37.5, "unit": "µg/mL"}, {"measurement": "MBC", "setting": "Helicobacter pylori, clinical isolate HP 1868, pH = 7.2, read-out: MBC", "value": 62.5, "unit": "µg/mL"}, {"measurement": "MBC", "setting": "Helicobacter pylori, clinical isolate HP 1869 (MET resistance), pH = 7.2, read-out: MBC", "value": 62.5, "unit": "µg/mL"}, {"measurement": "MBC", "setting": "Helicobacter pylori, clinical isolate HP 1870 (CLR and MET resistance), pH = 7.2, read-out: MBC", "value": 37.5, "unit": "µg/mL"}, {"measurement": "MBC", "setting": "Helicobacter pylori, clinical isolate HP 1871 (MET resistance), pH = 7.2, read-out: MBC", "value": 37.5, "unit": "µg/mL"}, {"measurement": "MBC", "setting": "Helicobacter pylori, clinical isolate HP 1872, pH = 7.2, read-out: MBC", "value": 37.5, "unit": "µg/mL"}, {"measurement": "MBC", "setting": "Helicobacter pylori, clinical isolate HP 1873, pH = 7.2, read-out: MBC", "value": 75, "unit": "µg/mL"}, {"measurement": "MBC", "setting": "Helicobacter pylori, clinical isolate HP 1874, pH = 7.2, read-out: MBC", "value": 100, "unit": "µg/mL"}, {"measurement": "MBC", "setting": "Helicobacter pylori, clinical isolate HP 1875, pH = 7.2, read-out: MBC", "value": 75, "unit": "µg/mL"}, {"measurement": "MBC", "setting": "Helicobacter pylori, clinical isolate HP 1876 (CLR and MET resistance), pH = 7.2, read-out: MBC", "value": 75, "unit": "µg/mL"}, {"measurement": "MBC", "setting": "Helicobacter pylori, clinical isolate HP 1877, pH = 7.2, read-out: MBC", "value": 125, "unit": "µg/mL"}, {"measurement": "MBC", "setting": "Helicobacter pylori, clinical isolate ICDC 111001, pH = 7.2, read-out: MBC", "value": 50, "unit": "µg/mL"}, {"measurement": "MBC", "setting": "Helicobacter pylori, strain SS1, pH = 7.2, read-out: MBC", "value": 37.5, "unit": "µg/mL"}, {"measurement": "MBC/MIC", "setting": "clinical isolate HP 1868", "value": 1.25}, {"measurement": "MBC/MIC", "setting": "clinical isolate HP 1869", "value": 1.25}, {"measurement": "MBC", "setting": "clinical isolate HP 1869 (MET resistance), pH = 7.2", "value": 62.5, "unit": "µg/mL"}, {"measurement": "MBC/MIC", "setting": "clinical isolate HP 1870", "value": 1.5}, {"measurement": "MBC", "setting": "clinical isolate HP 1870 (CLR and MET resistance), pH = 7.2", "value": 37.5, "unit": "µg/mL"}, {"measurement": "MBC/MIC", "setting": "clinical isolate HP 1871", "value": 1.5}, {"measurement": "MBC", "setting": "clinical isolate HP 1871 (MET resistance), pH = 7.2", "value": 37.5, "unit": "µg/mL"}, {"measurement": "MBC/MIC", "setting": "clinical isolate HP 1872", "value": 1.5}, {"measurement": "MBC/MIC", "setting": "clinical isolate HP 1873", "value": 1.5}, {"measurement": "MBC/MIC", "setting": "clinical isolate HP 1874", "value": 2}, {"measurement": "MBC/MIC", "setting": "clinical isolate HP 1875", "value": 1.5}, {"measurement": "MBC/MIC", "setting": "clinical isolate HP 1876", "value": 1.5}, {"measurement": "MBC", "setting": "clinical isolate HP 1876 (CLR and MET resistance), pH = 7.2", "value": 75, "unit": "µg/mL"}, {"measurement": "MBC/MIC", "setting": "clinical isolate HP 1877", "value": 2.5}, {"measurement": "MBC/MIC", "setting": "clinical isolate ICDC 111001", "value": 2}, {"measurement": "MBC/MIC", "setting": "strain NCTC 11637", "value": 2.5}, {"measurement": "MBC/MIC", "setting": "strain NCTC 26695", "value": 1.5}, {"measurement": "MBC/MIC", "setting": "strain SS1", "value": 1.5}]}
